Results from PubChem BioAssay AID248 (DTP/NCI, 2004).
“And” between values parts separate entries of the source, which are not always exact repeats. Identical values can stand only once. Toxic doses and inconclusive results are not listed. Cut-off read from the data, not from the text of the source: active = T/C of 150% or more; inactive = T/C below 125%.

Test system: L1210 leukemia ip in BDF1 mice, survival T/C
Experiment: NCI In Vivo Anticancer Drug Screen. Data for tumor model L1210 Leukemia (intraperitoneal) in B6D2F1 (BDF1) mice
Conditions: endpoint: mean survival time, higher = longer survival
Summary of the method: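 Transplanted-tumor mice were given test agent; controls received vehicle only. Survival readings from the two groups were divided (treated over control).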

[1] = dose: 100.0 mg/kg/injection, schedule: Q04DX002 (ip), vehicle: Klucel (hydroxypropylcellulose) (HPC)
[2] = dose: 200.0 mg/kg/injection, schedule: Q04DX002 (ip), vehicle: Klucel (hydroxypropylcellulose) (HPC)
[3] = dose: 400.0 mg/kg/injection, schedule: Q04DX002 (ip), vehicle: Klucel (hydroxypropylcellulose) (HPC)
[4] = dose: 100.0 mg/kg/injection, schedule: Q04DX003 (ip), vehicle: saline
[5] = dose: 200.0 mg/kg/injection, schedule: Q04DX003 (ip), vehicle: saline
[6] = dose: 400.0 mg/kg/injection, schedule: Q04DX003 (ip), vehicle: saline
[7] = dose: 50.0 mg/kg/injection, schedule: Q01DX001 (ip), vehicle: saline
[8] = dose: 100.0 mg/kg/injection, schedule: Q01DX001 (ip), vehicle: saline
[9] = dose: 200.0 mg/kg/injection, schedule: Q01DX001 (ip), vehicle: saline
[10] = dose: 400.0 mg/kg/injection, schedule: Q01DX001 (ip), vehicle: saline
[11] = dose: 100.0 mg/kg/injection, schedule: Q04DX003 (ip), vehicle: saline with Tween-80
[12] = dose: 200.0 mg/kg/injection, schedule: Q04DX003 (ip), vehicle: saline with Tween-80
[13] = dose: 100.0 mg/kg/injection, schedule: Q04DX002 (ip), vehicle: saline with Tween-80
[14] = dose: 200.0 mg/kg/injection, schedule: Q04DX002 (ip), vehicle: saline with Tween-80
[15] = dose: 400.0 mg/kg/injection, schedule: Q04DX002 (ip), vehicle: saline with Tween-80

Measured: T/C

Cc1ccccc1Nc1nc(N)nc2nc(N)c(C(N)=O)nc12
inactive: [1] 97 % of control | [2] 92 % of control | [3] 92 % of control

COC(=O)CCC(NC(=O)C1CSC(C)(C)N1C=O)C(=O)OC (configuration not stated)
inactive: [4] 104 % of control | [5] 101 % of control | [6] 101 % of control

COC1OC(CO)C(O)C(O)C1O (configuration not stated)
inactive: dose: 44.0 mg/kg/injection, schedule: Q01DX001 (ip), vehicle: saline 102 % of control and 105 % of control | [7] 102 % of control | dose: 50.0 mg/kg/injection, schedule: Q01DX009 (ip), vehicle: saline 90 % of control | dose: 66.0 mg/kg/injection, schedule: Q01DX001 (ip), vehicle: saline 96 % of control and 100 % of control | [8] 100 % of control and 107 % of control | dose: 100.0 mg/kg/injection, schedule: Q01DX009 (ip), vehicle: saline 109 % of control | dose: 150.0 mg/kg/injection, schedule: Q01DX001 (ip), vehicle: saline 105 % of control and 107 % of control | [9] 100 % of control | dose: 200.0 mg/kg/injection, schedule: Q01DX009 (ip), vehicle: saline 93 % of control | [10] 111 % of control

Cc1cc(C)c(O)c(CN(C)C)c1
inactive: [11] 101 % of control | [12] 98 % of control

OCC#CCO
inactive: dose: 5.0 mg/kg/injection, schedule: Q01DX001 (ip), vehicle: carboxymethylcellulose (CMC) 95 % of control | dose: 10.0 mg/kg/injection, schedule: Q01DX001 (ip), vehicle: carboxymethylcellulose (CMC) 104 % of control | dose: 12.0 mg/kg/injection, schedule: Q04DX003 (ip), vehicle: saline 98 % of control | dose: 20.0 mg/kg/injection, schedule: Q01DX001 (ip), vehicle: carboxymethylcellulose (CMC) 93 % of control | dose: 25.0 mg/kg/injection, schedule: Q04DX003 (ip), vehicle: saline 104 % of control | dose: 40.0 mg/kg/injection, schedule: Q01DX001 (ip), vehicle: carboxymethylcellulose (CMC) 106 % of control | dose: 50.0 mg/kg/injection, schedule: Q01DX009 (ip), vehicle: other 105 % of control | dose: 50.0 mg/kg/injection, schedule: Q04DX003 (ip), vehicle: saline 95 % of control | dose: 80.0 mg/kg/injection, schedule: Q01DX001 (ip), vehicle: carboxymethylcellulose (CMC) 95 % of control

CCCCCCCCCCCC(=O)NC(=S)Nc1ccc([N+](=O)[O-])cc1OC
inactive: dose: 100.0 mg/kg/injection, schedule: Q04DX003 (ip), vehicle: Klucel (hydroxypropylcellulose) (HPC) 96 % of control | dose: 200.0 mg/kg/injection, schedule: Q04DX003 (ip), vehicle: Klucel (hydroxypropylcellulose) (HPC) 92 % of control | dose: 400.0 mg/kg/injection, schedule: Q04DX003 (ip), vehicle: Klucel (hydroxypropylcellulose) (HPC) 102 % of control

O=c1[nH]c2nc(SCc3ccccc3)n(Cc3ccccc3)c2c(=O)n1OS(=O)(=O)c1ccccc1
inactive: [13] 101 % of control and 108 % of control | [11] 96 % of control | [14] 94 % of control and 96 % of control | [12] 94 % of control | [15] 94 % of control and 96 % of control | dose: 400.0 mg/kg/injection, schedule: Q04DX003 (ip), vehicle: saline with Tween-80 91 % of control

Brc1cccc(Br)n1
inactive: dose: 50.0 mg/kg/injection, schedule: Q01DX001 (ip), vehicle: other 101 % of control | dose: 100.0 mg/kg/injection, schedule: Q01DX001 (ip), vehicle: other 121 % of control | [13] 106 % of control | dose: 200.0 mg/kg/injection, schedule: Q01DX001 (ip), vehicle: other 97 % of control | [14] 93 % of control | dose: 400.0 mg/kg/injection, schedule: Q01DX001 (ip), vehicle: other 101 % of control | [15] 106 % of control

OC1OC(CN(CCCl)c2ccccc2)C(O)C(O)C1O (configuration not stated)
inactive: dose: 18.0 mg/kg/injection, schedule: Q01DX Z (ip), vehicle: methylcellulose (MC) 109 % of control | dose: 27.0 mg/kg/injection, schedule: Q01DX Z (ip), vehicle: methylcellulose (MC) 117 % of control | dose: 60.0 mg/kg/injection, schedule: Q01DX Z (ip), vehicle: methylcellulose (MC) 117 % of control

C=CCCCCCCCCC
inactive: [13] 93 % of control | [14] 111 % of control | [15] 104 % of control

O=C1OC2CC3CC2C1C3C(=O)N1CCOCC1 (configuration not stated)
inactive: [4] 100 % of control and 96 % of control | [5] 91 % of control and 98 % of control | [6] 100 % of control and 98 % of control

CN1CN(c2ccccc2)C2(CCN(CCCCCCCl)CC2)C1=O
inactive: dose: 75.0 mg/kg/injection, schedule: Q04DX003 (ip), vehicle: Klucel (hydroxypropylcellulose) (HPC) 95 % of control | dose: 150.0 mg/kg/injection, schedule: Q04DX003 (ip), vehicle: Klucel (hydroxypropylcellulose) (HPC) 96 % of control | dose: 300.0 mg/kg/injection, schedule: Q04DX003 (ip), vehicle: Klucel (hydroxypropylcellulose) (HPC) 95 % of control

C1CCC2(CC1)CCCC2
inactive: dose: 75.0 mg/kg/injection, schedule: Q01DX001 (ip), vehicle: saline with Tween-80 95 % of control | dose: 150.0 mg/kg/injection, schedule: Q01DX001 (ip), vehicle: saline with Tween-80 92 % of control | dose: 300.0 mg/kg/injection, schedule: Q01DX001 (ip), vehicle: saline with Tween-80 104 % of control

O=C1C(n2ccc(=O)n(Cc3ccccc3)c2=O)CCN1CCO (configuration not stated)
inactive: [4] 96 % of control | [5] 119 % of control | [6] 102 % of control

c1ccc2cc3c(cc2c1)OCO3
inactive: [1] 110 % of control | [2] 107 % of control | [3] 98 % of control

O=C(NC(Cc1ccccc1)C(=O)NCCCCCCCCCCNC(=O)C(Cc1ccccc1)NC(=O)OCc1ccccc1)OCc1ccccc1 (configuration not stated)
inactive: [7] 92 % of control | [8] 98 % of control | [9] 110 % of control | [10] 104 % of control

O=C(O)COc1cccc2ccc(Cl)cc12
inactive: [1] 101 % of control | [2] 90 % of control | [3] 96 % of control

O=C1CCSC(=S)N1c1ccc(Cl)c(Cl)c1
inactive: dose: 25.0 mg/kg/injection, schedule: Q04DX003 (ip), vehicle: saline with Tween-80 101 % of control | dose: 50.0 mg/kg/injection, schedule: Q04DX003 (ip), vehicle: saline with Tween-80 101 % of control | [11] 104 % of control

Nc1ncnc2nc[nH]c12.[Tl]
inactive: dose: 3.12 mg/kg/injection, schedule: Q01DX009 (ip), vehicle: water 95 % of control | dose: 3.12 mg/kg/injection, schedule: Q04DX003 (ip), vehicle: water 103 % of control | dose: 6.25 mg/kg/injection, schedule: Q01DX009 (ip), vehicle: water 95 % of control | dose: 6.25 mg/kg/injection, schedule: Q04DX003 (ip), vehicle: water 108 % of control | dose: 12.5 mg/kg/injection, schedule: Q04DX003 (ip), vehicle: water 105 % of control

O=C(Nc1ccc(Cl)c(C(F)(F)F)c1)OCc1ccco1
inactive: dose: 100.0 mg/kg/injection, schedule: Q01DX009 (ip), vehicle: gum acacia 93 % of control | dose: 200.0 mg/kg/injection, schedule: Q01DX009 (ip), vehicle: gum acacia 100 % of control | dose: 400.0 mg/kg/injection, schedule: Q01DX009 (ip), vehicle: gum acacia 92 % of control

Nc1ccccc1-c1nc(N)c2ccccc2n1
inactive: dose: 100.0 mg/kg/injection, schedule: Q01DX001 (ip), vehicle: Klucel (hydroxypropylcellulose) (HPC) 102 % of control | dose: 200.0 mg/kg/injection, schedule: Q01DX001 (ip), vehicle: Klucel (hydroxypropylcellulose) (HPC) 102 % of control | dose: 400.0 mg/kg/injection, schedule: Q01DX001 (ip), vehicle: Klucel (hydroxypropylcellulose) (HPC) 108 % of control

Cc1sc(-c2ccccc2)nc1-c1ccc(N=Cc2ccc(N(CCCl)CCCl)cc2)cc1
inactive: dose: 100.0 mg/kg/injection, schedule: Q01DX001 (ip), vehicle: carboxymethylcellulose (CMC) 101 % of control | dose: 200.0 mg/kg/injection, schedule: Q01DX001 (ip), vehicle: carboxymethylcellulose (CMC) 101 % of control | dose: 400.0 mg/kg/injection, schedule: Q01DX001 (ip), vehicle: carboxymethylcellulose (CMC) 106 % of control

COc1ccc(OC)c2[nH]c(=O)c(CCC(=O)O)nc12
inactive: dose: 100.0 mg/kg/injection, schedule: Q04DX003 (ip), vehicle: other 96 % of control | dose: 200.0 mg/kg/injection, schedule: Q04DX003 (ip), vehicle: other 96 % of control

CCOC(=O)Nc1nccs1
inactive: [11] 105 % of control | [12] 96 % of control
